# Test results published in patent US9433621B2, “Substituted pyridine and pyrimidine derivatives and their use in treating viral infections” (Merck Sharp & Dohme Corp., priority 2010, dated 2016).
# Tested on: HCV replicon
# Test: Cell-Based HCV Replicon Assay
# Details: Hepatitis C virus; HCV Replicon assay, EC90 range, Table VI; read-out: EC90
# Procedure, shortened: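 EC50 and EC90 taken from sigmoid fits of ΔCT (5B minus GAPDH) as the concentrations raising ΔCT by 1 and 3.2 over baseline, via multiplex real-time RT-PCR on lysates after 3 days. Replicon cells at 5000/well; 10 two-fold dilutions from 25–1 μM, 0.5% DMSO, 10% FBS.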
row,SMILES,EC90
1,CO[C@@H](CNc1nc(C)c(-c2nc3c(C)nccc3s2)c(N[C@@H]2C[C@H](CO)[C@@H](O)[C@H]2O)n1)C(F)(F)F [Example 5230],< 500 nM
2,CO[C@@H](CNc1nc(C)c(-c2nc3c(C4CC4)nccc3s2)c(N[C@@H]2C[C@H](CO)[C@@H](O)[C@H]2O)n1)C(F)(F)F [Example 5231],< 500 nM
3,CO[C@@H](CNc1nc(C)c(-c2nc3c(C)nccc3s2)c(N[C@@H]2C[C@H](C(C)(C)O)[C@@H](O)[C@H]2O)n1)C(F)(F)F [Example 5232],< 500 nM
4,CCO[C@@H](CNc1nc(C)c(-c2nc3c(C)nccc3s2)c(N[C@@H]2C[C@H](CO)[C@@H](O)[C@H]2O)n1)C(F)(F)F [Example 5233],< 500 nM
5,CCO[C@@H](CNc1nc(C)c(-c2nc3c(C4CC4)nccc3s2)c(N[C@@H]2C[C@H](CO)[C@@H](O)[C@H]2O)n1)C(F)(F)F [Example 5234],< 500 nM
6,CCO[C@@H](CNc1nc(C)c(-c2nc3c(C)nccc3s2)c(N[C@@H]2C[C@H](C(C)(C)O)[C@@H](O)[C@H]2O)n1)C(F)(F)F [Example 5235],< 500 nM
7,Cc1nc(NCc2c(F)cc(F)cc2F)nc(N[C@@H]2C[C@H](C3(O)CC3)[C@@H](O)[C@H]2O)c1-c1nc2c(C)nccc2s1 [Example 5236],< 500 nM
8,Cc1nc(NCCSC(C)(C)C)nc(N[C@@H]2C[C@H](C3(O)CC3)[C@@H](O)[C@H]2O)c1-c1nc2c(C)nccc2s1 [Example 5237],< 500 nM
9,CO[C@H](C)CNc1nc(C)c(-c2nc3c(C)nccc3s2)c(N[C@@H]2C[C@H](C3(O)CC3)[C@@H](O)[C@H]2O)n1 [Example 5238],< 500 nM
10,Cc1nc(NCC2CC2)nc(N[C@@H]2C[C@H](C3(O)CC3)[C@@H](O)[C@H]2O)c1-c1nc2c(C)nccc2s1 [Example 5239],< 500 nM
11,COC[C@@H](C)Nc1nc(C)c(-c2nc3c(C)nccc3s2)c(N[C@@H]2C[C@H](C3(O)CC3)[C@@H](O)[C@H]2O)n1 [Example 5240],< 500 nM
12,CSCCNc1nc(C)c(-c2nc3c(C)nccc3s2)c(N[C@@H]2C[C@H](C(C)(C)O)[C@@H](O)[C@H]2O)n1 [Example 5241],< 500 nM
13,Cc1nc(N)nc(N[C@@H]2C[C@H](C(C)(C)O)[C@@H](O)[C@H]2O)c1-c1nc2c(C)nccc2s1 [Example 5242],< 500 nM
14,CCOCCNc1nc(C)c(-c2nc3c(C)nccc3s2)c(N[C@@H]2C[C@H](C(O)(COC)COC)[C@@H](O)[C@H]2O)n1 [Example 5243],< 500 nM
15,COC[C@@H](C)Nc1nc(C)c(-c2nc3c(C)nccc3s2)c(N[C@@H]2C[C@H](C(O)(COC)COC)[C@@H](O)[C@H]2O)n1 [Example 5244],< 500 nM
16,COCC(O)(COC)[C@H]1C[C@@H](Nc2nc(NC[C@@H](C)OC)nc(C)c2-c2nc3c(C)nccc3s2)[C@H](O)[C@@H]1O [Example 5245],< 500 nM
17,COCC(O)(COC)[C@H]1C[C@@H](Nc2nc(NCC3CC3)nc(C)c2-c2nc3c(C)nccc3s2)[C@H](O)[C@@H]1O [Example 5246],< 500 nM
18,COCC(O)(COC)[C@H]1C[C@@H](Nc2nc(NCc3c(F)cc(F)cc3F)nc(C)c2-c2nc3c(C)nccc3s2)[C@H](O)[C@@H]1O [Example 5247],< 500 nM
19,CCC(O)(CC)[C@H]1C[C@@H](Nc2nc(NCCSC(C)(C)C)nc(C)c2-c2nc3c(C)nccc3s2)[C@H](O)[C@@H]1O [Example 5248],< 500 nM
20,Cc1nc(NCCS(C)(=O)=O)nc(N[C@@H]2C[C@H](C(C)(C)O)[C@@H](O)[C@H]2O)c1-c1nc2c(C)nccc2s1 [Example 5249],500 to 5000 nM
21,Cc1nc(NCCS(=O)(=O)C(C)(C)C)nc(N[C@@H]2C[C@H](C(C)(C)O)[C@@H](O)[C@H]2O)c1-c1nc2c(C)nccc2s1 [Example 5250],< 500 nM
22,CSCC[C@@H](CO)Nc1nc(C)c(-c2nc3c(C)nccc3s2)c(N[C@@H]2C[C@H](C(C)(C)O)[C@@H](O)[C@H]2O)n1 [Example 5251],< 500 nM
23,Cc1nc(NCc2cn(C)cn2)nc(N[C@@H]2C[C@H](C(C)(C)O)[C@@H](O)[C@H]2O)c1-c1nc2c(C)nccc2s1 [Example 5252],< 500 nM
